One series deals with B16 melanoma. The series can be described thus: Intra-tumoral injection into B16 melanoma, immunohistochemistry of immune cell recruitment. Type of series: in vivo, mice. Here is the method: FIG. 23 provides data relating to Hp-91(270 μg), pI:C (125 μg), or Pam3Cys (125 μg) injected into B16 melanoma and the mice were sacrificed 24 h after the injection. The tumor was embedded in OCT and frozen sections were stained for Mac 1 (macrophages), CD11c (DCs), and CD3 (T cells) by immuno-histochemistry. Pictures were taken in brightfield at 20×.
In certain subsets of breast tumors the presence of tumor-associated macrophages is associated with […]. Thus, in order to maximize the anti-tumor immune response we tested two TLR agonists; pI:C (TLR3 agonist) and Pam3Cys (TLR2 agonist), and our immunostimulatory peptides for their ability to recruit immune cells to the tumor. Hp-91, pI:C, or Pam3Cys were injected into B16 melanoma, the mice were sacrificed 24 h after the injection and the tumor was frozen and sections stained for the indicated markers. […] This is a very promising result as Hp-91 will not only contribute to the recruitment of DCs, but also mature the arriving DCs. Thus in the context of antigen release by concurrent local cytotoxic therapy, we expect to create a very favorable environment for the uptake of tumor antigen by DCs and their subsequent activation. In addition, CD8 T cells after being primed in the draining lymph nodes are expected to be recruited in higher numbers to the tumor site via the peptide leading to a strong immune response and tumor killing.

Another series deals with DNA nanoparticles. In words: Doxorubicin fluorescence quenching on DNA nanoparticles. To be noted: indicates doxorubicin binding to the particles. The text has this: With increasing concentration of Doxorubicin, the DNA nanoparticles become saturated and free Doxorubicin in solution can fluoresce.
The fluorescence of doxorubicin is quenched with the addition of DNA nanoparticles, indicating doxorubicin binding to the particles (FIG. 44).

The test system of the next series is cells. The series can be described thus: Doxorubicin toxicity to cells with and without untargeted DNA particles. The series is classed as cell-based. Here is the method: The IC50 was determined to be 0.1 μg of Doxo for […]. […] Targeted DNA particles may be selected or a targeting moiety added. (2) At the same time, DNA nanoparticles absorbed Doxo, which is good for our purpose of loading DNA with drugs (FIG. 45).

Series [1] concerns pancreatic cancer cell line panc02. The series can be described thus: Flow cytometry binding of DNA nanoparticle clones to panc02. Type of series: cell-based, mouse. Particulars: fluorescently labeled. The text has this: FIGS. 57A and 57B summarizes the results of the selection of pancreatic cancer cell line panc02 targeting particles. The mouse pancreatic lines panc02 was panned with a single module DNA nanoparticle library. After the 3rd and 4th round, the selected pool was fluorescently labeled and tested on the target cells by flow cytometry (FIG. 57A). A shift indicating enrichment of binding clones was observed. After the 5th and 6th round, clones were generated from the selected pool and sequenced (TABLE 6). 10 of the 12 sequenced clones contained a specific sequence motif: AATGGGGCG (SEQ ID NO:12). In two of the clones the motif appears in the same frame (C45 and C58). Two independent clones for each we recovered with the sequence of clone 40 and 46.
(A flow cytometer gives signals particle by particle.)

Setting [2] is: Hp-91 270 μg, pI:C 125 μg, Pam3Cys 125 μg, 24 h after injection.
Where [3] appears, read: higher dose 500 μg, data not shown.

The results in this text go back to patent US8895242B2, “Single molecule nucleic acid nanoparticles” (The Regents of the University of California, priority 2009, dated 2014).

In the case of `CCCCCCCCCCCCCCCC(=O)N[C@@H](CSC[C@@H](COC(=O)CCCCCCCCCCCCCCC)OC(=O)CCCCCCCCCCCCCCC)C(=O)O` [Pam3Cys], in the series on B16 melanoma (setting [2]), the “recruitment of DCs (CD11c+) into the tumor” value is “only Hp-91”, the “recruitment of T cells (CD3+) into the tumor” value is recorded as “only Hp-91” and the “recruitment of macrophages into the tumor” value is recorded as “caused recruitment of macrophages”. Further, in the series with B16 melanoma (setting [3]), the “DC recruitment into the tumor” value was “no T cell and DC recruitment”; the “T cell recruitment into the tumor” value was “no T cell”.
Take `COc1cccc2c1C(=O)c1c(O)c3c(c(O)c1C2=O)C[C@@](O)(C(=O)CO)C[C@@H]3O[C@H]1C[C@H](N)[C@H](O)[C@H](C)O1` [Doxo, Doxorubicin]: the entries for the “doxorubicin fluorescence on addition of DNA nanoparticles” value in the series with DNA nanoparticles (listed as Doxorubicin) and with DNA nanoparticles (listed as doxorubicin) were “fluorescence is quenched” and “quenched”, respectively. In the series with cells, the IC50 stood at 0.1 µg.

B1: C50: panc02-selection clone lacking the … motif, SEQ ID NO:11 (nucleic acid)
DNA: TGCTTTTTGGAACTCCTGCTCAACTTGTGTCCTCTTGAAAGAGTCGGTCATACCTATAAGAATACTTTTATACAGCCAAAGGTGACGTTGAGTTGGATCC
modifications: DNA, backbone and methylation of C not given here; rolling circle concatemer folded into DNA nanoparticle
In the case of B1, the “binding to panc02” value in series [1] was “do not”.

B2: C21: panc02-selection clone lacking the … motif, SEQ ID NO:10 (nucleic acid)
DNA: TGCTTTTTGGAACTCCTGCTAGACGTTAGATGTATCTGACCTTACGACTTCAACTTCCTTCTAAATCTGCCCACAACGATGGTGACGTTGAGTTGGATCC
modifications: DNA, backbone and methylation of C not given here; rolling circle concatemer folded into DNA nanoparticle
In the case of B2, in series [1], the “binding to panc02” value is listed as “do not”.
